Measurements: ChEMBL document CHEMBL4804286, “3-amino-4-(4-(4 (dimethylcarbamoyl) phenyl)-1,4-diazepan-1-yl) thieno [2,3-b] pyridine-2-carboxamide for use in cancer therapy and formulations comprising the same” (2020)
Several values for one entry are separate records, joined by “and”; a condition that tells them apart may be missing. Equal entries are not always repeated. Activity calls are given as the source filed them. The calls are words filed in the database; no cut-off is given here.

What was measured:
[1] = tested on: Tyrosine-protein kinase ABL1 (Homo sapiens), P00519 [F317I]; test: Inhibition of phosphorylated human ABL1 F317I mutant assessed as percent of control at 2000 nM by KINOMEscan assay relative to control; set-up: scale not given: the % may be the effect or the level left
[2] = tested on: Tyrosine-protein kinase ABL1 (Homo sapiens), P00519 [UNDEFINED MUTATION]; test: Inhibition of phosphorylated human ABL1 […] mutant assessed as percent of control at 2000 nM by KINOMEscan assay relative to control; set-up: scale not given: the % may be the effect or the level left
[3] = biological target: BMP-2-inducible protein kinase (Homo sapiens) (UniProt Q9NSY1); test: Inhibition of human BIKE assessed as percent of control at 2000 nM by KINOMEscan assay relative to control; set-up: scale not given: the % may be the effect or the level left
[4] = biological target: Serine/threonine-protein kinase B-raf (Homo sapiens) (UniProt P15056); test: Inhibition of human BRAF assessed as percent of control at 2000 nM by KINOMEscan assay relative to control; set-up: scale not given: the % may be the effect or the level left
[5] = tested on: Serine/threonine-protein kinase B-raf (Homo sapiens), P15056 [V600E]; test: Inhibition of human BRAF V600E mutant assessed as percent of control at 2000 nM by KINOMEscan assay relative to control; set-up: scale not given: the % may be the effect or the level left
[6] = biological target: Calcium/calmodulin-dependent protein kinase type 1G (Homo sapiens) (UniProt Q96NX5); test: Inhibition of human CAMK1G assessed as percent of control at 2000 nM by KINOMEscan assay relative to control; set-up: scale not given: the % may be the effect or the level left
[7] = biological target: Casein kinase I isoform gamma-2 (Homo sapiens) (UniProt P78368); test: Inhibition of human CSNK1G2 assessed as percent of control at 2000 nM by KINOMEscan assay relative to control; set-up: scale not given: the % may be the effect or the level left
[8] = biological target: Mitogen-activated protein kinase kinase kinase 12 (Homo sapiens) (UniProt Q12852); test: Inhibition of human DLK assessed as percent of control at 2000 nM by KINOMEscan assay relative to control; set-up: scale not given: the % may be the effect or the level left
[9] = tested on: Epidermal growth factor receptor (Homo sapiens), P00533 [G719C]; test: Inhibition of human EGFR G719C mutant assessed as percent of control at 2000 nM by KINOMEscan assay relative to control; set-up: scale not given: the % may be the effect or the level left
[10] = tested on: Epidermal growth factor receptor (Homo sapiens), P00533 [UNDEFINED MUTATION]; test: Inhibition of human EGFR L747-T751del/Sins double mutant assessed as percent of control at 2000 nM by KINOMEscan assay relative to control; set-up: scale not given: the % may be the effect or the level left
[11] = tested on: Epidermal growth factor receptor (Homo sapiens), P00533 [UNDEFINED MUTATION]; test: Inhibition of human EGFR […] mutant assessed as percent of control at 2000 nM by KINOMEscan assay relative to control; set-up: scale not given: the % may be the effect or the level left
[12] = biological target: Ephrin type-A receptor 6 (Homo sapiens) (UniProt Q9UF33); test: Inhibition of human EPHA6 assessed as percent of control at 2000 nM by KINOMEscan assay relative to control; set-up: scale not given: the % may be the effect or the level left
[13] = biological target: Focal adhesion kinase 1 (Homo sapiens) (UniProt Q05397); test: Inhibition of human FAK assessed as percent of control at 2000 nM by KINOMEscan assay relative to control; set-up: scale not given: the % may be the effect or the level left
[14] = tested on: eIF-2-alpha kinase GCN2 (Homo sapiens), Q9P2K8 [S808G]; test: Inhibition of human GCN2 S808G mutant kinase domain 2 assessed as percent of control at 2000 nM by KINOMEscan assay relative to control; set-up: scale not given: the % may be the effect or the level left
[15] = biological target: Homeodomain-interacting protein kinase 4 (Homo sapiens) (UniProt Q8NE63); test: Inhibition of human HIPK4 assessed as percent of control at 2000 nM by KINOMEscan assay relative to control; set-up: scale not given: the % may be the effect or the level left
[16] = biological target: Inhibitor of nuclear factor kappa-B kinase subunit alpha (Homo sapiens) (UniProt O15111); test: Inhibition of human IKK-alpha assessed as percent of control at 2000 nM by KINOMEscan assay relative to control; set-up: scale not given: the % may be the effect or the level left
[17] = biological target: Dual specificity mitogen-activated protein kinase kinase 1 (Homo sapiens) (UniProt Q02750); test: Inhibition of human MEK1 assessed as percent of control at 2000 nM by KINOMEscan assay relative to control; set-up: scale not given: the % may be the effect or the level left
[18] = biological target: Serine/threonine-protein kinase PAK 6 (Homo sapiens) (UniProt Q9NQU5); test: Inhibition of human PAK6 assessed as percent of control at 2000 nM by KINOMEscan assay relative to control; set-up: scale not given: the % may be the effect or the level left
[19] = biological target: Platelet-derived growth factor receptor alpha (Homo sapiens) (UniProt P16234); test: Inhibition of human PDGFRA assessed as percent of control at 2000 nM by KINOMEscan assay relative to control; set-up: scale not given: the % may be the effect or the level left
[20] = tested on: Phosphatidylinositol 4,5-bisphosphate 3-kinase catalytic subunit alpha isoform (Homo sapiens), P42336 [C420R]; test: Inhibition of human PIK3CA C420R mutant assessed as percent of control at 2000 nM by KINOMEscan assay relative to control; set-up: scale not given: the % may be the effect or the level left
[21] = biological target: Protein kinase C theta type (Homo sapiens) (UniProt Q04759); test: Inhibition of human PRKCQ assessed as percent of control at 2000 nM by KINOMEscan assay relative to control; set-up: scale not given: the % may be the effect or the level left
[22] = biological target: cGMP-dependent protein kinase 2 (Homo sapiens) (UniProt Q13237); test: Inhibition of human PRKG2 assessed as percent of control at 2000 nM by KINOMEscan assay relative to control; set-up: scale not given: the % may be the effect or the level left
[23] = biological target: Serine/threonine-protein kinase RIO3 (Homo sapiens) (UniProt O14730); test: Inhibition of human RIOK3 assessed as percent of control at 2000 nM by KINOMEscan assay relative to control; set-up: scale not given: the % may be the effect or the level left
[24] = biological target: Ribosomal protein S6 kinase alpha-2 (Homo sapiens) (UniProt Q15349); test: Inhibition of human N-terminal RSK3 kinase domain 1 assessed as percent of control at 2000 nM by KINOMEscan assay relative to control; set-up: scale not given: the % may be the effect or the level left
[25] = biological target: Serine/threonine-protein kinase Sgk1 (Homo sapiens) (UniProt O00141); test: Inhibition of human SGK assessed as percent of control at 2000 nM by KINOMEscan assay relative to control; set-up: scale not given: the % may be the effect or the level left
[26] = biological target: Dual specificity protein kinase TTK (Homo sapiens) (UniProt P33981); test: Inhibition of human TTK assessed as percent of control at 2000 nM by KINOMEscan assay relative to control; set-up: scale not given: the % may be the effect or the level left
[27] = biological target: Serine/threonine-protein kinase WNK1 (Homo sapiens) (UniProt Q9H4A3); test: Inhibition of human WNK1 assessed as percent of control at 2000 nM by KINOMEscan assay relative to control; set-up: scale not given: the % may be the effect or the level left
[28] = biological target: Tyrosine-protein kinase Yes (Homo sapiens) (UniProt P07947); test: Inhibition of human YES assessed as percent of control at 2000 nM by KINOMEscan assay relative to control; set-up: scale not given: the % may be the effect or the level left
CWR22R = test: Antitumor activity against human 22Rv1 cells expressing AR-V7 xenografted in male nude mouse assessed as suppression of tumor growth at 50 mg/kg, po administered daily for 15 days; type: functional, organism-based
[29] = biological target: Casein kinase I isoform alpha (Homo sapiens) (UniProt P48729); settings: INHIBITOR, dose 2000.0 nM
Description: Inhibition of human CSNK1A1 at 2000 nM by KINOMEscan assay

[30] = biological target: Casein kinase I isoform delta (Homo sapiens) (UniProt P48730); settings: INHIBITOR, dose 2000.0 nM
Description: Inhibition of human CSNK1D at 2000 nM by KINOMEscan assay

Serine/threonine-protein kinase Sgk1 (Homo sapiens), sequence (O00141 whole entry): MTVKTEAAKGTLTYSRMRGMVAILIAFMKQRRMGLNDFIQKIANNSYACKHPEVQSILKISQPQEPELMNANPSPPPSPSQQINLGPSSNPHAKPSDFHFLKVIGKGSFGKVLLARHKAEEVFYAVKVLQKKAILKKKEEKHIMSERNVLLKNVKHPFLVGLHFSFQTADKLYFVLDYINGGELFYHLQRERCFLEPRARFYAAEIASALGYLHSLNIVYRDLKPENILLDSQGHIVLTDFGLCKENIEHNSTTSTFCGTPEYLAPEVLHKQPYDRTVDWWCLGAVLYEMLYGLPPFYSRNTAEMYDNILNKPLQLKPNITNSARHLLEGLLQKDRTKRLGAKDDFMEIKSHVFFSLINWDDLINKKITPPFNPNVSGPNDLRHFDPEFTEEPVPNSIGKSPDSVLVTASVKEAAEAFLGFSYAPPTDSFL
Platelet-derived growth factor receptor alpha (Homo sapiens), sequence (P16234 whole entry, canonical isoform): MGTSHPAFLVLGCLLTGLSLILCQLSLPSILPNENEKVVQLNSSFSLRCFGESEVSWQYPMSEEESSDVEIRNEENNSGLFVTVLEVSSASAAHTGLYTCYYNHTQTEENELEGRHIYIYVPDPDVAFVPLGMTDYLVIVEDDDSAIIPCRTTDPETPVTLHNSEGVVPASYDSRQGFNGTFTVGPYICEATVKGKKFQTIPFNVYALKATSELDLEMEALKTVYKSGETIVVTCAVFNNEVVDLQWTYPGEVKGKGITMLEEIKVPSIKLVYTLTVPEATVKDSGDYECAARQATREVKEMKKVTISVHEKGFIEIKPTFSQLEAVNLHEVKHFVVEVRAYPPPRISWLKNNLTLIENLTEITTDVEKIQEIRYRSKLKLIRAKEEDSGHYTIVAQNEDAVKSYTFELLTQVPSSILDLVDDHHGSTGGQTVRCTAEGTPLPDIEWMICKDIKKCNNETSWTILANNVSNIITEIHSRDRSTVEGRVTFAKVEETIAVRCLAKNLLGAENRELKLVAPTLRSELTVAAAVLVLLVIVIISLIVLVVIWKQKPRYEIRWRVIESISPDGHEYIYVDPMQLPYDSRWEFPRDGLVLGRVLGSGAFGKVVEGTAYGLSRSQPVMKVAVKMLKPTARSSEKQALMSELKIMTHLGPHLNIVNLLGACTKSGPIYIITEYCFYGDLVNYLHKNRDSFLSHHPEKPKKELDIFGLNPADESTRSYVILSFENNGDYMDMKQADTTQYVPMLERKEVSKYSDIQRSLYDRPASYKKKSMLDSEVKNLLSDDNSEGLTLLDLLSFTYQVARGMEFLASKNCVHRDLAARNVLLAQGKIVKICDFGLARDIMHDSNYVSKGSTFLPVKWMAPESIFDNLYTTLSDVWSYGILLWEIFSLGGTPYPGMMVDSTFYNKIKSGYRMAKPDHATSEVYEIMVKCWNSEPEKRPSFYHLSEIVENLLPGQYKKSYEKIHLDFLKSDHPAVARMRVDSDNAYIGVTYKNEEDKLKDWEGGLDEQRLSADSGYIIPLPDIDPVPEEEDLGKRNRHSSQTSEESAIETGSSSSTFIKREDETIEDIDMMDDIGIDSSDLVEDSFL
Protein kinase C theta type (Homo sapiens), sequence (Q04759 whole entry, looked up): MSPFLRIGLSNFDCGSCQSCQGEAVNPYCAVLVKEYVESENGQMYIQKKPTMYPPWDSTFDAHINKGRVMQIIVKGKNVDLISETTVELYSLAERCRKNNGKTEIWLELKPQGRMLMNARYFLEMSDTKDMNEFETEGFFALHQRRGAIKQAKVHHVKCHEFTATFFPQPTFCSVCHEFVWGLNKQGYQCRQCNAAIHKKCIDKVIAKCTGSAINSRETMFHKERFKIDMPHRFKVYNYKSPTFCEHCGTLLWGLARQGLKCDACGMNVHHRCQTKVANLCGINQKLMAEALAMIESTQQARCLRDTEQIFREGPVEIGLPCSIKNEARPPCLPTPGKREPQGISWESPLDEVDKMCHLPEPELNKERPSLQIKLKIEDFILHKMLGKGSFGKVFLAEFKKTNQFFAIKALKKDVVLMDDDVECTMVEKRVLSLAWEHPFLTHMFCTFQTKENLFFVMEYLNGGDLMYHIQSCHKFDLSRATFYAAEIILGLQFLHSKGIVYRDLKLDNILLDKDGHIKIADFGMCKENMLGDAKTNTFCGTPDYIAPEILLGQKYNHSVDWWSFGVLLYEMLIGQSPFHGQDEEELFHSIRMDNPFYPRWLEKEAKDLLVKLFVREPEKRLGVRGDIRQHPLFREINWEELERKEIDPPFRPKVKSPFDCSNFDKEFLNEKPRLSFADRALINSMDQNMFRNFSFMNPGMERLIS
Mitogen-activated protein kinase kinase kinase 12 (Homo sapiens), sequence (Q12852 whole entry): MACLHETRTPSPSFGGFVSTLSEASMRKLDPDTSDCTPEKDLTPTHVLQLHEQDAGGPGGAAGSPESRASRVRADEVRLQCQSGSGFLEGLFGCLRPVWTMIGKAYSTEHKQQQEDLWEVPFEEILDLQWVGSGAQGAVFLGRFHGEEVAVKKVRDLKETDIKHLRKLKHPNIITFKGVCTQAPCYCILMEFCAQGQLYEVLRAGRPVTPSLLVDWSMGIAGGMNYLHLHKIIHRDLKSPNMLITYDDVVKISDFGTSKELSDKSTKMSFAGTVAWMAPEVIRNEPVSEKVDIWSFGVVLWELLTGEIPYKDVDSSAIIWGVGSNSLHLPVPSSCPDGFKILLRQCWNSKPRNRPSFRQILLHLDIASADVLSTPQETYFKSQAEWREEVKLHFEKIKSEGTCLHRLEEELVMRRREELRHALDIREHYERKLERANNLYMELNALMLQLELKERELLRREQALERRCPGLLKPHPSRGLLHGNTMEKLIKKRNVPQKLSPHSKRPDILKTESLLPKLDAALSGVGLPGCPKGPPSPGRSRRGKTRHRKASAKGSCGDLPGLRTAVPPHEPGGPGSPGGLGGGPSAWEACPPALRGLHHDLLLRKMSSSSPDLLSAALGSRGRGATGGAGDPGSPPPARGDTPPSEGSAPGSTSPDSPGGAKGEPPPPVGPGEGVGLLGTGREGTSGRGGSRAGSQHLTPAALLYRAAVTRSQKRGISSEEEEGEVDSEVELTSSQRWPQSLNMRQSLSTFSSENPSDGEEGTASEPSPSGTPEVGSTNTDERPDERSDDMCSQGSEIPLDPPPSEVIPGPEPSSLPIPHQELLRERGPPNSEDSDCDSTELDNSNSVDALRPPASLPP
BMP-2-inducible protein kinase (Homo sapiens), sequence (Q9NSY1 whole entry, looked up): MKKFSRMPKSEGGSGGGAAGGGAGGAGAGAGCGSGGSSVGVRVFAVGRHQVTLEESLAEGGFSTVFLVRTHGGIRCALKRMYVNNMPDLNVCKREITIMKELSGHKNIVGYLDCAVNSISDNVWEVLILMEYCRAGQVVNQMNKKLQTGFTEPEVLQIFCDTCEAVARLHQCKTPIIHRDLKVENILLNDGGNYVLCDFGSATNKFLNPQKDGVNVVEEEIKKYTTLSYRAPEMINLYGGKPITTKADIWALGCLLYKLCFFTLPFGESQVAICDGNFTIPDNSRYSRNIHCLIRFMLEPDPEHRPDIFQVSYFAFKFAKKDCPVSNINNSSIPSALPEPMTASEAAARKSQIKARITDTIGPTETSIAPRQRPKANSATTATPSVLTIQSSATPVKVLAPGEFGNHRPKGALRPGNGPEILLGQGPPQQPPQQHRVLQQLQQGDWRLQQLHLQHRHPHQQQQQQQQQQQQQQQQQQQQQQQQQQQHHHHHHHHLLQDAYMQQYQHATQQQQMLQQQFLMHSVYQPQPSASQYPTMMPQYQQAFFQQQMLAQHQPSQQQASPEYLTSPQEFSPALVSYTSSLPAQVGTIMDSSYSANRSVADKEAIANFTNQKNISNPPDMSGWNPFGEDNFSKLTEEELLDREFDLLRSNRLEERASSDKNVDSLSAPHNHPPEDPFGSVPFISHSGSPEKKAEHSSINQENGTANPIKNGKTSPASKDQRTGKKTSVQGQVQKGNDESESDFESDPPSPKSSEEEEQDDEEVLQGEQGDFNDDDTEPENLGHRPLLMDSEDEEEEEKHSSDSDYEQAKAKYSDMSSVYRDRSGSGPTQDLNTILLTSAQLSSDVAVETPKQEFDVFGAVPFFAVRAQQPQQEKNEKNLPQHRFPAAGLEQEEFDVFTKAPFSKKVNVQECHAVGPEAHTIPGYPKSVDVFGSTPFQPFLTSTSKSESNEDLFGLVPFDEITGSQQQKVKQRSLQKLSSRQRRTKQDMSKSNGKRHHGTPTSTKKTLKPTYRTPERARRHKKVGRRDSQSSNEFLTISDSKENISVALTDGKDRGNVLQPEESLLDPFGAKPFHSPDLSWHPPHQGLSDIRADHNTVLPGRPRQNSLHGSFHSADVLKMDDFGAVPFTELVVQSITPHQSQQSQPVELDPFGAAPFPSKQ
Serine/threonine-protein kinase PAK 6 (Homo sapiens), sequence (Q9NQU5 whole entry, looked up): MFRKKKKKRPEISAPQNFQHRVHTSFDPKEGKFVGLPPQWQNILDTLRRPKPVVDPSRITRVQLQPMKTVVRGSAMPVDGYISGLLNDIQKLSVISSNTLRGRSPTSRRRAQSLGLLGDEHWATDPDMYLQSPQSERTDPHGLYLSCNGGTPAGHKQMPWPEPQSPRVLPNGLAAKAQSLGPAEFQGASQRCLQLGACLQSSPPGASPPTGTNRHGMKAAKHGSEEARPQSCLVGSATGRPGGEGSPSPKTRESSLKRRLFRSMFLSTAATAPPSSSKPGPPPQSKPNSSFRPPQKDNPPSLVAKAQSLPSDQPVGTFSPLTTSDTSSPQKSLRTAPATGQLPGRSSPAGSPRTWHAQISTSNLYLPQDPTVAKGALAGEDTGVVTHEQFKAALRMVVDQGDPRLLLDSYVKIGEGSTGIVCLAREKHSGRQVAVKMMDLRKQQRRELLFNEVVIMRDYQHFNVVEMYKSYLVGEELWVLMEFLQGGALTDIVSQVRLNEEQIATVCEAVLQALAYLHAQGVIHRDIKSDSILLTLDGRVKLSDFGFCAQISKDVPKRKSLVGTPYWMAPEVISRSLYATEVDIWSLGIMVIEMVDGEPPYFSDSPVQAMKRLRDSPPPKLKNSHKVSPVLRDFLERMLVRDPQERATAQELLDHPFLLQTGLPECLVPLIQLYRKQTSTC

In the case of `CN(C)C(=O)c1ccc(N2CCCN(c3ccnc4sc(C(N)=O)c(N)c34)CC2)cc1`, the Activity [1] is reported as 88% and 84%, the Activity [2] is reported as 94% and 77% and the Activity [3] is reported as 100% and 96%. For the same compound, the Activity [4] was 100% and 96%, the Activity [5] was 100% and 84% and the Activity [6] was 99%. The Activity [7] was 77% and 69%, the Activity [8] was 93% and 89% and the Activity [9] was 97% and 100%. The Activity [10] was 87% and 100%, the Activity [11] was 86% and 100% and the Activity [12] was 100%. The Activity [13] was 100% and 96%, the Activity [14] was 73% and 88% and the Activity [15] was 100%. For the same compound, the Activity [16] was 77% and 90%, the Activity [17] was 93% and 83% and the Activity [18] was 82% and 99%. For the same compound, the Activity [19] was 70% and 65%, the Activity [20] was 100% and 86% and the Activity [21] was 90% and 87%. For the same compound, the Activity [22] was 98% and 90%, the Activity [23] was 100% and 95% and the Activity [24] was 99% and 77%. For the same compound, the Activity [25] was 86% and 83%, the Activity [26] was 83% and 80% and the Activity [27] was 100% and 93%. The Activity [28] was 99% and 100%, the Activity (CWR22R) was “Active” and the inhibition [29] was greater than 65%. For the same compound, the inhibition [30] was greater than 65%.
